Assay results taken from patent US20240043450A1, “NEW COMPOUND” (JANSSEN PHARMACEUTICA NV, priority 2020, published 2024).

Legend:
[1] = target: T1, NLRP3 (Homo sapiens, UniProt Q96P20); assay: PBMC assay: IL-1β levels in supernatant of LPS-stimulated human PBMCs (MSD); type: cell-based; settings: 30 min compound pre-incubation, 100 ng/ml LPS for 6 hrs, IL-1β in supernatant, read-out: IL-1B IC50
T1 construct: human peripheral blood mononuclear cells (PBMCs) were isolated from blood; endogenous in cells; host or cells: primary human PBMCs from healthy donors
T1 sequence (Q96P20 whole entry): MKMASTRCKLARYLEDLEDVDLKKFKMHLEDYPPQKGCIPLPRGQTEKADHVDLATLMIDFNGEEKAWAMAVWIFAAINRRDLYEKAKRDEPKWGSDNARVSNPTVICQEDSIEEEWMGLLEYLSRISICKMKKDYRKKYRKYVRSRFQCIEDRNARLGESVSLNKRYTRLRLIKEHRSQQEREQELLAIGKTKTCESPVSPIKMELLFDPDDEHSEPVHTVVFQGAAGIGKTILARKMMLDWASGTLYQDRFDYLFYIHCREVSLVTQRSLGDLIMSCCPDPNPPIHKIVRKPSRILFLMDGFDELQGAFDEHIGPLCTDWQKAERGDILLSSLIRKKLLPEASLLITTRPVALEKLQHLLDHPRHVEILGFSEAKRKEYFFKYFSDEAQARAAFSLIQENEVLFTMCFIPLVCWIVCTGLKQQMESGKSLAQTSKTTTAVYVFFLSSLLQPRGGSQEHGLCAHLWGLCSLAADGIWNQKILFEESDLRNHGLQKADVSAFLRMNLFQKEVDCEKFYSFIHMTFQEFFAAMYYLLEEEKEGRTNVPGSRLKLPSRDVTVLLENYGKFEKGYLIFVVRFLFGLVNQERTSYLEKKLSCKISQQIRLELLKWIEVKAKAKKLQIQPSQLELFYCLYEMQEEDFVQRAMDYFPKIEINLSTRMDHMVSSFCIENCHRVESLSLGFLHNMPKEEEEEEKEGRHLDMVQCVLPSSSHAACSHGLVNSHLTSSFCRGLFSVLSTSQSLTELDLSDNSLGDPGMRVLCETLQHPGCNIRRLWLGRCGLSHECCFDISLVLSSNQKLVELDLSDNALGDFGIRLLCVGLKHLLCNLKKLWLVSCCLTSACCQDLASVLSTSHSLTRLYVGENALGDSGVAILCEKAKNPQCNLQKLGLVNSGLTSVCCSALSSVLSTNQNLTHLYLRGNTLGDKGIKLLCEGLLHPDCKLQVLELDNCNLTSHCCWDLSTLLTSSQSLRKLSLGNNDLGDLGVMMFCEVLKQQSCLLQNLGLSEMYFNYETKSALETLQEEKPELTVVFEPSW
Procedure: The activity of a compound according to the present invention can be assessed by in vitro methods.
Peripheral venous blood was collected from healthy individuals and human peripheral blood mononuclear cells (PBMCs) were isolated from blood by Ficoll-Histopaque (Sigma-Aldrich, A0561) density gradient centrifugation. After isolation, PBMCs were stored in liquid nitrogen for later use. Upon thawing, PBMC cell viability was determined in growth medium (RPMI media supplemented with 10% fetal bovine serum, 1% Pen-Strep and 1% L-glutamine). […] PBMCs were added at a density of 7.5×10^4 cells per well and incubated for 30 min in a 5% CO2 incubator at 37° C. LPS stimulation was performed by addition of 100 ng/ml LPS (final concentration, Invivogen, tlrl-smlps) for 6 hrs followed by collection of cellular supernatant and the analysis of IL-1β […] and TNF cytokines levels […] via MSD technology according to manufacturers' guidelines (MSD, K15A0H).

[2] = test system: TNF; assay: PBMC assay: TNF cytokine levels in supernatant of LPS-stimulated human PBMCs (MSD); type: cell-based; settings: 30 min compound pre-incubation, 100 ng/ml LPS for 6 hrs
Procedure: Peripheral venous blood was collected from healthy individuals and human peripheral blood mononuclear cells (PBMCs) were isolated from blood by Ficoll-Histopaque (Sigma-Aldrich, A0561) density gradient centrifugation. After isolation, PBMCs were stored in liquid nitrogen for later use. Upon thawing, PBMC cell viability was determined in growth medium (RPMI media supplemented with 10% fetal bovine serum, 1% Pen-Strep and 1% L-glutamine). Compounds were spotted in a 1:3 serial dilution in DMSO and diluted to the final concentration in 30 μl medium in 96 well plates (Falcon, 353072). PBMCs were added at a density of 7.5×10^4 cells per well and incubated for 30 min in a 5% CO2 incubator at 37° C. LPS stimulation was performed by addition of 100 ng/ml LPS (final concentration, Invivogen, tlrl-smlps) for 6 hrs followed by collection of cellular supernatant and the analysis of IL-1β […] and TNF cytokines levels […] via MSD technology according to manufacturers' guidelines (MSD, K15A0H).
The IC50 values (for IL-1β) and EC50 values (TNF) were obtained on compounds of the invention/examples, and are depicted in the following table: […]

Compound | IC50 [1] [nM] | melting point [°C] | EC50 ([2]; Homo sapiens, PBMC) [nM] | EC50 [2] [nM]
CC(C)c1nn(CC(=O)Nc2ccc3nncn3c2)c(=O)c2sc(C3COC3)nc12 [F-24] | 567 | 151.3 | > 20000 | 
Cn1nc(NC(=O)Cn2nc(C3CC3)c3nc(C4CC4)sc3c2=O)ccc1=O [F-25] | 715 | 219.9 | ~12600 | 
O=C(Cn1nc(C2CC2)c2nc(C3CC3)sc2c1=O)Nc1ccc2nncn2c1 [F-26] | 126 | 285 | 10800 | 
C[C@]1(O)C[C@@H](NC(=O)Cn2nc(C3CC3)c3nc(C4CC4)sc3c2=O)C1 [F-27] | 780 | 198.2 | > 20000 | 
CC(C)c1nn(CC(=O)Nc2ccc3cncn3c2)c(=O)c2sc(C3CC3)nc12 [F-28] | 97 | 195.8 | 6360 | 
CC(C)c1nn(CC(=O)Nc2ccn3ccnc3c2)c(=O)c2sc(C3CC3)nc12 [F-29] | 155 | 215.5 | 12300 | 
Cc1nc2ccc(NC(=O)Cn3nc(C(C)C)c4nc(C5CC5)sc4c3=O)cn2n1 [F-30] | 237 | 204.6 | 19600 | 
Cc1nnc2n1CC(NC(=O)Cn1nc(C(C)C)c3nc(C4CC4)sc3c1=O)CC2 (centres unmarked) [F-31] | 407 |  | > 20000 | 
CC(C)c1nn(CC(=O)Nc2ccn3ccnc3n2)c(=O)c2sc(C3CC3)nc12 [F-34] | 692 | 258 | 8260 | 
Cc1nnc2cc(NC(=O)Cn3nc(C(C)C)c4nc(C5CC5)sc4c3=O)ccn12 [F-35] | 1190 | 282.4 | > 20000 | 
CC(C)c1nn(CC(=O)Nc2ccc3nccn3c2)c(=O)c2sc(C3CC3)nc12 [F-36] | 72 |  | 15900 | 
CC(C)c1nn(CC(=O)Nc2cnc3nccn3c2)c(=O)c2sc(C3CC3)nc12 [F-37] | 247 | 147.1 | > 20000 | 
CC(C)c1nn(CC(=O)Nc2ccn3ncnc3c2)c(=O)c2sc(C3CC3)nc12 [F-38] | 354 | 203.8 | 15700 | 
CC(C)c1nn(CC(=O)Nc2ccc3nnc(C(F)F)n3c2)c(=O)c2sc(C3CC3)nc12 [F-39] | 446 | 216.3 | 13100 | 
CC(C)c1nn(CC(=O)Nc2ccn3cnnc3c2)c(=O)c2sc(C3CC3)nc12 [F-40] |  | 299.1 |  | > 20000
CC(C)c1nn(CC(=O)Nc2cc(Br)c3nncn3c2)c(=O)c2sc(C3CC3)nc12 [F-41, N-(8-bromo-[1,2,4]triazolo[4,3-a]pyridin-6-yl)-2-(2-cyclopropyl-4-isopropyl-7-oxothiazolo[4,5-d]pyridazin-6(7H)-yl)acetamide] | 265 | 280.9 | > 20000 | 
CC(C)c1nn(CC(=O)Nc2ccc3nc(C#N)cn3c2)c(=O)c2sc(C3CC3)nc12 [F-42] | 188 |  | > 20000 | 
CC(C)c1nn(CC(=O)Nc2ccc3ncoc3c2)c(=O)c2sc(C3CC3)nc12 [F-43] | 102 | 194.9 | 9620 | 
CC(C)c1nn(CC(=O)Nc2cnc3ccnn3c2)c(=O)c2sc(C3CC3)nc12 [F-44] | 2310 |  | > 20000 | 
CC(C)c1nn(CC(=O)Nc2ccn3c(F)cnc3c2)c(=O)c2sc(C3CC3)nc12 [F-47] | 1240 |  | ~19600 | 
CC(C)c1nn(CC(=O)Nc2ccc3nnc(Cl)n3n2)c(=O)c2sc(C3CC3)nc12 [F-51] | 286 |  | > 20000 | 
CC(C)c1nn(CC(=O)Nc2ccc3nncn3n2)c(=O)c2sc(C(C)(F)F)nc12 [F-52, N-([1,2,4]triazolo[4,3-b]pyridazin-6-yl)-2-(2-(1,1-difluoroethyl)-4-isopropyl-7-oxothiazolo[4,5-d]pyridazin-6(7H)-yl)acetamide] | 56 |  | 18600 | 
CC(C)c1nn(CC(=O)Nc2ccc3nc(C(F)(F)F)cn3c2)c(=O)c2sc(C3CC3)nc12 [F-58] | 224 |  | 19800 | 
CC(C)c1nn(CC(=O)Nc2cc(C#N)c3nncn3c2)c(=O)c2sc(C3CC3)nc12 [F-60, N-(8-cyano-[1,2,4]triazolo[4,3-a]pyridin-6-yl)-2-(2-cyclopropyl-4-isopropyl-7-oxothiazolo[4,5-d]pyridazin-6(7H)-yl)acetamide] | 316 |  | > 20000 | 
